Values joined by “and” are separate entries in the source; they are usually repeats but may differ in a detail not shown here. Equal values may be shown once. *1 amine or outer side, *2 acyl side, *3 side chain or, on linkers, in order; H or OH if unused. Where a SMILES comes first, the peptide text is derived from it. [ ]: non-standard residue; d: D form. The star is where a group is joined. AMC = Cc1cc(=O)oc2cc(N*)ccc12; pGlu = O=C1CC[C@@H](C(=O)O)N1; Suc = O=C(CCC(=O)[*:2])[*:1]; Bz = O=C(c1ccccc1)*; CH2Cl = ClC*

In general, % Inhibition refers to the relative decrease from the control value, in per cent. As usually defined, the Km is the substrate concentration at which the rate is half of its maximum.

Assay [1] concerns Cat1 S3 fur extract proteolytic activity. Description: Inhibition of the proteolytic activity in animal fur by proteinase inhibitors. To be noted: Cat1 S3, 10 μM inhibitor. The assay is classed as biochemical, cat. As for the experimental part:
(§1) […] The assay was begun with substrate and sample and a continuous rate of product formation (nM/min) was measured (v0) for 15 min. The inhibitor was added to a final concentration of 10 μM in negligible volume from stock solution in dimethyl sulfoxide. The assay was continued for a further 15 min.
(§2) Under these conditions reversible inhibition can be measured as the new steady state (v1) with percentage inhibition being 1−(v1/v0)×100. Irreversible inhibition is measured as a second order rate constant and is time dependent but as long as the inhibitor is present in molar excess should always lead eventually to total inhibition. No distinction was made and inhibition is presented as a percentage of full activity. See results table 4.

Assay [2] concerns Horse1 S1 mane extract proteolytic activity. The description is as above. To be noted: Horse1 S1, 10 μM inhibitor, substrate 2 Z-Phe-Arg-NHMec. Type of assay: biochemical, horse. The procedure: as §1, §2
In assay [3] the test system is Horse1 S2 fur extract proteolytic activity. The description is as above. Type of assay: biochemical, horse. To be noted: Horse1 S2, 10 μM inhibitor, substrate 2 Z-Phe-Arg-NHMec. The procedure: as §1, §2
For assay [4], the system named is Dog2 S1 fur extract proteolytic activity. Described as above. Type of assay: biochemical, dog. Conditions: Dog2 S1, 10 μM inhibitor, substrate 2 Z-Phe-Arg-NHMec. As for the experimental part: as §1, §2
Assay [5] relates to G.pig2 S1 fur extract proteolytic activity. The description is as above. Type of assay: biochemical, guinea pig. Conditions: G.pig2 S1, 10 μM inhibitor, substrate 2 Z-Phe-Arg-NHMec. The procedure: as §1, §2
The subject of assay [6] is Cat1 S3 fur extract proteolytic activity. Description: Proteolytic activity of fur extract against NHMec substrates. Type of assay: biochemical, cat. To be noted: sample Cat1 S3, 5 μM substrate, 37° C., pH 7.5. The procedure: (§3) A clean pet brush was used to brush three common English domestic cats. Fur from guinea pigs, rabbit, dogs and horse was collected in the same way. A different brush was used for each species and between brushings these were cleaned thoroughly in a denaturing detergent solution (Fairy® detergent) and then ethanol. The brushings were transferred to a sterile universal container and extracted by shaking in an extraction buffer, 50 mM Tris.HCl, 5 mM CaCl2, pH 7.5 (0.1 g/ml). The solution was recovered by centrifugation and stored at −20° C. in aliquots. Saliva was collected from a mastiff-type dog and stored frozen in aliquots until assayed. Sample aliquots were assayed for proteolytic activity using fluorometric blocked peptidylaminomethylcoumarylamide substrates in the cuvette of a Perkin Elmer fluorimeter at 37° C. The fluorimeter was standardised with a known concentration of methylcoumarin, and the assays were designed so that no more than 10% substrate hydrolysis occurred.
(§4) Assays were performed in assay buffer; 50 mM Tris.HCl, 5 mM CaCl2, 0.1% CHAPS, pH 7.5. Data were collected in real-time on a personal computer using the Flusys software package.
(§5) In the first series of experiments the sample (12 μl) was assayed against a range of serine and cysteine proteinase aminomethylcoumarylamide (NHMec) substrates (obtained commercially from Bachem) under standard conditions of 5 μM substrate concentration (from a 100-fold stock solution in dimethyl sulfoxide) to give a final volume of 120 μl. After addition of substrate the rate without sample was determined (which in all cases was zero), after which the sample was applied and the progress of the reaction was followed for a further 15 min. The slope obtained (fluorescence vs time) was analysed by linear regression and converted to rate of product formation (nM/min) see results table 2.

For assay [7] the test system is unchanged. Kind of assay: Determination of Ki for the inhibition of Cat1 S3 by leupeptin. Type of assay: biochemical, cat. More on the design: V1: unit not given beside the values. As for the experimental part:
The assays were carried out as described above, using 5 μM Z-Gly-Gly-Arg-NHMec as substrate in assay buffer. The assay was begun with substrate and sample and a continuous rate of product formation (nM/min) was measured (v0) for 15 min. […] The assay was continued for a further 15 min.
as §2

The test system of assay [8] is Cat1 S1 fur extract proteolytic activity. Kind of assay: Proteolytic activity of fur extract against NHMec substrates. Type of assay: biochemical, cat. To be noted: sample Cat1 S1, 5 μM substrate, 37° C., pH 7.5. As for the experimental part: as §3, §4, §5
Assay [9] deals with Cat2 S1 fur extract proteolytic activity. The assay is described as above. Type of assay: biochemical, cat. To be noted: sample Cat2 S1, 5 μM substrate, 37° C., pH 7.5. As for the experimental part:
as §3, §4, §5

The subject of a further assay is cat fur enzyme(s). Kind of assay: Rates of cleavage at varying substrate concentration and Km. Type of assay: biochemical. To be noted: for Rate: cat fur sample. The procedure: as §5
A rough estimate of the Km for the cleavage of Z-Gly-Gly-Arg-NHMec and of Z-Phe-Arg-NHMec by the cat fur enzyme(s) were determined using the same procedure with varying concentrations of these substrates see results table 3.
As the activity follows normal Michaelis-Menten kinetics it is clear that it is due to the activity of one or more biological catalysts or enzymes.

The mark [10] stands for this setting: substrate 1 Z-Gly-Gly-Arg-NHMec.

In the case of `CC(C)C[C@H](NC(=O)[C@H]1O[C@@H]1C(=O)O)C(=O)NCCCCN=C(N)N` (relative stereo) [E64, L-trans epoxysuccinyl-leucylamido-4-guanidino-butane], in [1] (setting [10]), the “% Inhibition” value was 20.4% and the “v1 (rate after inhibitor)” value is 2.005 nM/min.
The corresponding values for `O=c1oc(Cl)c(Cl)c2ccccc12` [3,4-Dichloroisocoumarin] are 35.4% and 1.837 nM/min.
Regarding `N=C(N)SCCCOc1oc(=O)c2cc(N)ccc2c1Cl` [ACITIC, 7-amino-4-chloro-3-(-3-isothiureido-propoxy) isocoumarin], the “% Inhibition” value in assay [2] was 100%; in [3] it was 100%; in assay [4], 71.2%; in [5], 94.8%; in assay [1] (setting [10]), 100%. The “v1 (rate after inhibitor)” value in assay [2] turned out to be 0 nM/min; in assay [3] it was 0 nM/min; in assay [4], 0.184 nM/min; in assay [5], 0.964 nM/min; in assay [1] (setting [10]) it was 0.002 nM/min.
The compound `Cc1cc(=O)oc2cc(NC(=O)[C@H](CCCN=C(N)N)NC(=O)[C@@H](NC(=O)[C@H](Cc3ccccc3)NC(=O)c3ccccc3)C(C)C)ccc12` [Bz-Phe-Val-Arg-NHMec] (Bz-Phe-Val-Arg-{AMC}) yielded a Rate in assay [6] of 32.1 nM/min.
Consider `NC(N)=NCCC[C@H](NC(=O)CNC(=O)[C@@H](N)CCC(=O)O)C(=O)CCl` [H-Glu-Gly-Arg-chloromethane] (H-Glu-Gly-Arg-CH2Cl), for which, in assay [1] (setting [10]), the “% Inhibition” value was 98.7% and the “v1 (rate after inhibitor)” value came out at 0.143 nM/min.
Consider `CC(=O)N[C@@H](CC(C)C)C(=O)N[C@@H](CC(C)C)C(=O)N[C@H](C=O)CCCNC(=N)N` [Leupeptin, acetyl-Leu-Leu-Arg-CHO], for which the “% Inhibition” value in assay [7] (Cat1 S3, [I] 0.5 nM) was 25.0%; in [7] (Cat1 S3, [I] 1.0 nM) it was 24.3%; in assay [7] (Cat1 S3, [I] 5.0 nM), 37.9%; in assay [7] (Cat1 S3, [I] 10.0 nM) it was 53.2%; in [7] (Cat1 S3, [I] 50.0 nM) it was 68.7%; in assay [7] (Cat1 S3, [I] 100.0 nM), 78.0%. In addition, in assay [1] (setting [10]), the “% Inhibition” value came out at 100%. Moreover, the V1 in assay [7] (Cat1 S3, [I] 0.5 nM) was determined as 6.0; in assay [7] (Cat1 S3, [I] 1.0 nM), 5.6; in assay [7] (Cat1 S3, [I] 5.0 nM), 4.9; in assay [7] (Cat1 S3, [I] 10.0 nM) it was 4.4; in [7] (Cat1 S3, [I] 50.0 nM), 2.6; in assay [7] (Cat1 S3, [I] 100.0 nM), 1.8. In addition, the Ki in assay [7] (found using the Enzfitter software package, read-out: Kl for the inhibition of Cat1 S3) amounted to 2.64 nM. In addition, the “v1 (rate after inhibitor)” value in assay [1] (setting [10]) stood at 0 nM/min.
In the case of `N=C(N)SCCCOc1oc(=O)c2cc(NC(=O)NCc3ccccc3)ccc2c1Cl` [PhCH2NHCONH-CiTPrOIC], in assay [1] (substrate 2 Z-Phe-Arg-NHMec), the “% Inhibition” value was found to be 100% and the “v1 (rate after inhibitor)” value came out at 0 nM/min.
As to `Cc1cc(=O)oc2cc(NC(=O)[C@H](CCCN=C(N)N)NC(=O)[C@H](CCCCN)NC(=O)[C@@H](NC(=O)[C@H](CCCN=C(N)N)NC(=O)[C@@H]3CCC(=O)N3)[C@@H](C)O)ccc12` [Pyr-Arg-Thr-Lys-Arg-NHMec] ([pGlu]RTKR-{AMC}), the Rate in assay [8] is on record as 0.58 nM/min; in assay [9] it was 0.33 nM/min.
For `Cc1cc(=O)oc2cc(NC(=O)[C@H](C)NC(=O)[C@H](C)NC(=O)[C@H](C)NC(=O)CCC(=O)O)ccc12` [Suc-Ala-Ala-Ala-NHMec], the Rate entry in [8] and in assay [9] was “No activity” in each case.
With `Cc1cc(=O)oc2cc(NC(=O)[C@H](Cc3ccccc3)NC(=O)[C@H](C)NC(=O)[C@H](C)NC(=O)CCC(=O)O)ccc12` [Suc-Ala-Ala-Phe-NHMec] (Suc-Ala-Ala-Phe-{AMC}), the Rate result in assay [8] was “No activity”; in [9] it was 0.03 nM/min.
On to `Cc1cc(=O)oc2cc(NC(=O)[C@H](Cc3ccccc3)NC(=O)[C@@H]3CCCN3C(=O)[C@H](C)NC(=O)[C@H](C)NC(=O)CCC(=O)O)ccc12` [Suc-Ala-Ala-Pro-Phe-NHMec] (Suc-AAPF-{AMC}), for which the values for the Rate in assay [8] and in assay [9] were 0.04 nM/min and 0.05 nM/min, respectively.
On the same counts, the results for `Cc1cc(=O)oc2cc(NC(=O)[C@@H](NC(=O)[C@@H]3CCCN3C(=O)[C@H](C)NC(=O)[C@H](C)NC(=O)CCC(=O)O)C(C)C)ccc12` [Suc-Ala-Ala-Pro-Val-NHMec] (Suc-AAPV-{AMC}) are “No activity” and “No activity”.
The corresponding values for `Cc1cc(=O)oc2cc(NC(=O)[C@H](CCCCN)NC(=O)[C@H](Cc3ccccc3)NC(=O)[C@H](C)NC(=O)CCC(=O)O)ccc12` [Suc-Ala-Phe-Lys-NHMec] (Suc-Ala-Phe-Lys-{AMC}) are “No activity” and “No activity”.
Turning to `Cc1cc(=O)oc2cc(NC(=O)[C@H](CCCN=C(N)N)NC(=O)CNC(=O)CNC(=O)OCc3ccccc3)ccc12` [Z-Gly-Gly-Arg-NHMec], the Rate was 0.87 nM/min in assay [8]; 1.35 nM/min in assay [9]; 1.47 nM/min in the assay with cat fur enzyme(s) ([Substrate] 5 μM); 2.42 nM/min with cat fur enzyme(s) ([Substrate] 10 μM); 3.41 nM/min in the assay with cat fur enzyme(s) ([Substrate] 20 μM); 4.82 nM/min and 8.84 nM/min in the assay on cat fur enzyme(s) ([Substrate] 40 μM). For the same compound, the Rate with cat fur enzyme(s) ([Substrate] 60 μM) amounted to 10.01 nM/min; in the assay with cat fur enzyme(s) ([Substrate] 80 μM), 13.27 nM/min; in the assay with cat fur enzyme(s) ([Substrate] 100 μM) it was 11.40 nM/min; in the assay on cat fur enzyme(s) ([Substrate] 125 μM) it was 13.49 nM/min. Moreover, the Km with cat fur enzyme(s) (non-linear regression, Enzfitter, rough estimate) was 95 ± 47 µM.
In the case of Aprotinin, in assay [1] (setting [10]), the “% Inhibition” value was found to be 89.6% and the “v1 (rate after inhibitor)” value came out at 0.292 nM/min.

The record behind these values is patent US20040248769A1, “Enzyme inhibitors for inactivating allergens” (priority 2001, published 2004).
